Assay results reported in article PMC9575579 (European Journal of Medicinal Chemistry, 2022).
Marks after values point to notes of the source that are not given here.

Legend:
[1] = tested on: Vero E6-GFP cells; conditions: African green monkey, 2 µM
[2] = tested on: SARS-CoV-2; assay: microbe, parasite or virus in culture; conditions: for EC50: Severe acute respiratory syndrome coronavirus 2, Vero, 72 h
[3] = target: SARS-CoV-2 M^pro (Severe acute respiratory syndrome coronavirus 2, UniProt P0DTD1); assay: biochemical; format: biochemical; conditions: for IC50: M^pro SARS-COV-2 IC50
[4] = target: MERS-CoV M^pro (Middle East respiratory syndrome-related coronavirus, UniProt K9N7C7); assay: biochemical; conditions: for inhibition at 30 µM: read-out: % of inhibition of the M^pro at 30 μM (MERS)
Chain of MERS-CoV M^pro (K9N7C7 3248-3553 limits assumed): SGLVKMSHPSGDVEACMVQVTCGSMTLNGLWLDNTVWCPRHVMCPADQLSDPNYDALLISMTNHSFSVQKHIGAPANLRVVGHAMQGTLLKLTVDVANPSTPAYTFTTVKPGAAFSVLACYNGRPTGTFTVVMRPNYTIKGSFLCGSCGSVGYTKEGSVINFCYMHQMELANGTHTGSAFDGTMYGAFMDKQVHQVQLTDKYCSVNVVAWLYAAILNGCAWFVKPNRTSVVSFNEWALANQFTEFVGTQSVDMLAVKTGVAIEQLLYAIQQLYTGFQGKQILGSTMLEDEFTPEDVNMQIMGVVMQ

O=C(NCCc1ccccc1)C(=O)[C@H](C[C@@H]1CCNC1=O)NC(=O)[C@@H]1CCCN1C(=O)OCc1ccccc1 [9a, (S)-benzyl2-((S)-3,4-dioxo-1-((S)-2-oxopyrrolidin-3-yl)-4-(phenethylamino)butan-2ylcarbamoyl)pyrrolidine-1-carboxylate]
Residual cell viability at the highest concentration tested [1]: >100 (100%) ^e | EC50 + CP100356 (2 μM) [2]: did not change

O=C(NCCc1ccccc1F)C(=O)[C@H](C[C@@H]1CCNC1=O)NC(=O)[C@@H]1CCCN1C(=O)OCc1ccccc1 [9b, (S)-benzyl2-((S)-4-(2-fluorophenethylamino)-3,4-dioxo-1-((S)-2-oxopyrrolidin-3-yl)butan-2-ylcarbamoyl)pyrrolidine-1-carboxylate]
M^pro SARS-COV-2 IC50 [3]: submicromolar range

COc1ccccc1CCNC(=O)C(=O)[C@H](C[C@@H]1CCNC1=O)NC(=O)[C@@H]1CCCN1C(=O)OCc1ccccc1 [9c, (S)-benzyl2-((S)-4-(2-methoxyphenethylamino)-3,4-dioxo-1-((S)-2-oxopyrrolidin-3-yl)butan-2-ylcarbamoyl)pyrrolidine-1-carboxylate]
M^pro SARS-COV-2 IC50 [3]: submicromolar range

O=C(NCc1ccccc1)C(=O)[C@H](C[C@@H]1CCNC1=O)NC(=O)[C@@H]1CCCN1C(=O)COc1ccc(Cl)cc1Cl [9d, (S)–N-((S)-4-(benzylamino)-3,4-dioxo-1-((S)-2-oxopyrrolidin-3-yl)butan-2-yl)-1-(2-(2,4-dichlorophenoxy)acetyl)pyrrolidine-2-carboxamide]
Residual cell viability at the highest concentration tested [1]: >100 (100%) ^e

O=C(NCCc1ccccc1)C(=O)[C@H](C[C@@H]1CCNC1=O)NC(=O)[C@@H]1CCCN1C(=O)COc1ccc(Cl)cc1Cl [9e, (S)-1-(2-(2,4-dichlorophenoxy)acetyl)-N-((S)-3,4-dioxo-1-((S)-2-oxopyrrolidin-3-yl)-4-(phenethylamino)butan-2-yl)pyrrolidine-2-carboxamide]
Residual cell viability at the highest concentration tested [1]: >100 (100%) ^e

COc1ccc(CNC(=O)C(=O)[C@H](C[C@@H]2CCNC2=O)NC(=O)[C@@H]2CCCN2C(=O)COc2ccc(Cl)cc2Cl)c(OC)c1 [9f, (S)-1-(2-(2,4-dichlorophenoxy)acetyl)-N-((S)-4-(2,4-dimethoxybenzylamino)-3,4-dioxo-1-((S)-2-oxopyrrolidin-3-yl)butan-2-yl)pyrrolidine-2-carboxamide]
IC50 [3]: 1.93 ± 0.16 µM | IC50 [4]: > 30 µM | inhibition at 30 µM [4]: 59% | EC50 [2]: > 100 µM

O=C(NCc1ccccc1C(F)(F)F)C(=O)[C@H](C[C@@H]1CCNC1=O)NC(=O)[C@@H]1CCCN1C(=O)COc1ccc(Cl)cc1Cl [9h, (S)-1-(2-(2,4-dichlorophenoxy)acetyl)-N-((S)-3,4-dioxo-1-((S)-2-oxopyrrolidin-3-yl)-4-(2-(trifluoromethyl)benzylamino)butan-2-yl)pyrrolidine-2-carboxamide]
IC50 [3]: > 30 µM | inhibition at 30 µM ([3]; read-out: % of inhibition of the M^pro at 30 μM (SARS-CoV-2)): 57% | IC50 [4]: > 30 µM | inhibition at 30 µM [4]: 73% | EC50 [2]: > 100 µM
